Results from patent US11011273B2, “Pathway analysis for identification of diagnostic tests” (Nantomics, LLC, priority 2013, dated 2021).

What was measured:
Assay type in all cases: cell-based
cell line HT29 = assay: Treatment effectiveness (GI50) on cell line HT29; settings: Homo sapiens, HT-29; data point 245, FIG. 2; read-out: sensitivity class from GI50 treatment effectiveness value
Source text: (§1) There are many ways to derive and measure treatment effectiveness data 136 for a particular treatment. For example, effectiveness data can be derived by administering the evaluated treatment to each and every diseased cell line, and measure the effect of the evaluated treatment on each diseased cell line. The measurement can be based on an amount of drug needed to obtain a threshold inhibition effect of the disease in the cell line (e.g., the amount of drug needed to reduce the activities of the disease by half).
(§2) FIG. 2 illustrates a graph 200 showing a graphical representation of an example set of treatment effectiveness data 136 that represents how effective NANT3456 is on a set of cell lines. NANT3456 is described in more detail in WO/2014/071378, published May 8, 2014, which is incorporated by reference herein. In some embodiments, the data points on FIG. 2 represent distinct cell lines from different tissues, distinct cell lines from the same tissue, or any combination thereof. Further, the cell lines may be derived from a single host, multiple distinct hosts, or any combination. In this example, NANT3456 is known to be capable of treating diseases associated with the set of cell lines (e.g., cell lines MV411, TT, AN3CA, K562, PC3, HCT116, ASPC1, MDAMB231, TF1, NCIH23, MIAPACA2, HS766T, CAPAN2, A549, HT29, U937, BXPC3, CAPAN1, and SU8686). […]

NCIH23 = assay: Treatment effectiveness (GI50) on cell line NCIH23; settings: Homo sapiens, NCI-H23; data point 240, FIG. 2; read-out: sensitivity class from GI50 treatment effectiveness value
Source text: as §1, §2

cell line CAPAN1 = assay: Treatment effectiveness (GI50) on cell line CAPAN1; settings: Homo sapiens, CAPAN-1; data point 250, FIG. 2; read-out: sensitivity class from GI50 treatment effectiveness value
Source text: as §1, §2

cell line TT = assay: Treatment effectiveness (GI50) on cell line TT; settings: data point 230, FIG. 2; read-out: sensitivity class from GI50 treatment effectiveness value
Source text: as §1, §2

cell line PC3 = assay: Treatment effectiveness (GI50) on cell line PC3; settings: data point 235, FIG. 2; read-out: sensitivity class from GI50 treatment effectiveness value
Source text: as §1, §2

cell line MV411 = assay: Treatment effectiveness (GI50) on cell line MV411; settings: Homo sapiens, MV4-11; data point 225, FIG. 2; read-out: sensitivity class from GI50 treatment effectiveness value
Source text: as §1, §2

[1] = tested on: set of cell lines (MV411, TT, AN3CA, K562, PC3, HCT116, ASPC1, MDAMB231, TF1, NCIH23, MIAPACA2, HS766T, CAPAN2, A549, HT29, U937, BXPC3, CAPAN1, SU8686); assay: Treatment effectiveness (GI50) of NANT3456 on a set of cell lines; settings: median over all cell lines of FIG. 2; dotted line 220
Source text: as §1, §2

C/C=C/c1cc(Nc2cc(N3CCN(C)CC3)nc(Oc3cc(F)c4[nH]c(C)cc4c3F)n2)n[nH]1 [NANT3456]
GI50 sensitivity class (cell line HT29): > 50.1 nM
GI50 (NCIH23): > 50.1 nM
GI50 (cell line CAPAN1): > 50.1 nM
GI50 (cell line TT): < 50.1 nM
GI50 (cell line PC3): < 50.1 nM
GI50 (cell line MV411): < 50.1 nM
threshold effectiveness value (median value of all treatment effectiveness values, GI50) [1]: 1.7 log10 units of nanomolar drug
